Values quoted from earlier work, collected in patent US11406718B2, “Methods of detecting pancreobiliary ductal leaks” (CHIRHOCLIN, INC., priority 2012, dated 2022).
No end group written: not given here.

| Substance | serious adverse drug reactions (human secretin stimulation) | adverse reaction seen rarely (thousands of patients in pancreobiliary function testing with human secretin) | effect on pancreatic duct diameter (pancreas; in vivo) | effect on sphincter of Oddi (pancreas; in vivo) | effect on pancreatic juice (pancreas; primary action) | allergic reactions (human, in vivo) | dose safely given (human, in vivo) [µg/kg] | hemodynamic effects (human, in vivo) | largest dose administered in a study, found safe (human, in vivo) [µg] | risk of acute pancreatitis episodes (human, in vivo) |
| --- | --- | --- | --- | --- | --- | --- | --- | --- | --- | --- |
| human secretin | There has not been any serious reported adverse drug reaction | flushing of the face with stable vital signs | – | – | – | – | – | – | – | – |
| secretin (HSDGTFTSELSRLRDSARLQRLLQGLV; ends and bridges not checked; UniProt P63298 33-59, looked up) | – | – | increases the pancreatic duct diameter | causes sphincter of Oddi relaxation | increase the volume and bicarbonate content of pancreatic juice | No allergic reactions have been reported | 0.78 | No significant hemodynamic effects have been observed | 160 | not known to increase the risk of acute pancreatitis episodes |
